# Data from paper PMC6610665, “On the potential of in vitro organ-chip models to define temporal pharmacokinetic-pharmacodynamic relationships” (Scientific Reports, 2019).
# Read-outs that look alike come from different tables or passages of the source.
# Tests used:
# [1] = Heart only and heart:liver chip PKPD model (Phoenix NLME 7.0)
# Procedure: Heart, liver, media, and PDMS compartments and their corresponding parameters can be seen outlined in Fig. 4a.
# A fifth compartment, FPD, was added to the Phoenix model to represent a PD profile linked to the defined PK model.
# Using the experimental data collected (Fig. 3), parameters (except for Kint) were simultaneously fit across heart only and heart-liver systems. […] In the heart only case, the liver compartment was eliminated resulting in relevant parameters being equal to 0. Volumes of each compartment was defined by system parameters described above. The liver volume was initialized based on the system estimates but allowed to vary to account for any differences between assumed and actual cell numbers or sizes. […] Published Guinea pig[23], dog[24] and human, PK profiles were used as inputs into the established model in order to predict cardiac bioaccumulation over time, and therefore predict change in predicted FPD. While Guinea pig and dog temporal PKPD data is available in the literature, matching human data is not. […] The reported standard deviation values in PK profile were used to capture the associated error in predicted FPD values.
# [2] = heart only model, 5 µM terfenadine
# Procedure: (§1) All drugs were separated using gradient elution methodology on a C18 phase (Agilent Zorbax Eclipse Plus, 4.6 mm, 100 mm length, 3 µm particle diameter) with binary mobile phase. Samples (50 µL) were diluted with acetonitrile and centrifuged to precipitate proteins after addition of the internal standard. The MS was set to positive ion mode and multiple reactive monitoring with nitrogen used for collision induced dissociation.
# [3] = heart:liver model, 5 µM terfenadine, mean ± SD
# Procedure: as §1
# [4] = parameters: method as in PMID 18587422, PMID 16581270; settings: Guinea pig; assumed for FPD simulation; cited from earlier work
# [5] = parameters: method as in PMID 18587422, PMID 16581270; settings: dog; assumed for FPD simulation; cited from earlier work
# [6] = parameters: method as in PMID 18587422, PMID 16581270; settings: human; assumed for FPD simulation; cited from earlier work
# hiPS-CMs = test: Heart only MPS model, field potential duration (FPD) by MEA; assay type: cell-based, human; settings: 5 µM terfenadine
# Procedure: The medium recirculates between 2 reservoirs through a microfluidic network formed by the PDMS gaskets, with flow driven by a rocking platform producing a sinusoidal rocking profile with amplitude of ±1° and period of 60 seconds. The medium flows over the cell-containing areas of the liver coverslips and cardiac cantilever and MEA chips within the microfluidic channel. The system contained a total of 2 mL of medium throughout the flow channel and reservoirs. Compound dosing was applied at the reservoir closest to the liver chamber, such that the compound would first pass over and interact with the liver before being recirculated throughout the system.
# hiPS-CMs (purchased from Cellular Dynamics) were thawed and seeded directly onto the surfaces at 50,000 cells per MEA and 500,000 cells per cantilever[6]. Primary human hepatocytes were purchased from the Cell Resources Core (Massachusetts General Hospital, Boston, MA, USA). Once thawed, 150,000 hepatocytes were cultured in the hepatic chamber which was coated with rat tail collagen type I (60 ug/mL) as previously described[6]. […]
# FPD, spontaneous beat frequency and CV were extracted using Clampfit (Axon Instruments). The FPD was calculated by measuring the time from the initiation of the Q-wave until the apex of t-wave. […]
# [7] = fit across heart only and heart:liver systems
"tvKint (delay of fexofenadine release into the system), estimate ([1]; fit to fexofenadine concentration data, units printed n/a)","KC1 (flow medium to heart), estimate [1, 7] [min⁻¹]","KP2 (first order flow PDMS to medium), estimate [1, 7] [min⁻¹]","Kfc (metabolism of terfenadine to fexofenadine in heart compartment), estimate [1, 7] [min⁻¹]","KL2 (flow liver to medium), estimate ([1]; heart:liver system) [min⁻¹]","Kfl (metabolism of terfenadine to fexofenadine in liver compartment), estimate ([1]; heart:liver system) [min⁻¹]",terfenadine concentration in media ([2]; 12-hour timepoint) [µM],"terfenadine concentration in media (peak) ([2]; 0.5 hours, mean ± SD) [µM]","terfenadine concentration in cardiomyocyte lysates (peak) ([2]; 4 hours, mean ± SD) [µM]",terfenadine concentration in media (peak) ([3]; 0.5 hours) [µM],terfenadine concentration in heart chamber lysate (peak) ([3]; peak between 0.5 and 1 hours) [µM],terfenadine concentration in liver chamber lysate (peak) ([3]; peak between 0.5 and 1 hours) [µM],increase in FPD (hiPS-CMs; 12-hour timepoint) [fold],increase in FPD (peak measurable change) (hiPS-CMs; 4 hours) [fold],SMILES,percent free protein in plasma [4] [%],percent free protein in plasma [5] [%],percent free protein in plasma [6] [%]
0.00062,,,,,,,,,,,,,,CC(C)(C(=O)O)c1ccc(C(O)CCCN2CCC(C(O)(c3ccccc3)c3ccccc3)CC2)cc1 (centres unmarked) [fexofenadine],,,
,0.0019,0.00052,0.0009,0.04988,0.0162,0.099,5.88,2.65,0.53,1.08,12.04,4.8,8,CC(C)(C)c1ccc(C(O)CCCN2CCC(C(O)(c3ccccc3)c3ccccc3)CC2)cc1 (centres unmarked) [terfenadine],3,2,3
